Biological target: recombinant JAK3 (catalytic domain, aa 781-1124) (Homo sapiens (Human), UniProt P52333)
Assay: JAK3 Caliper Peptide Phosphorylation Assay
Format: biochemical
Details: fluorescently labeled Srctide substrate 1 uM; ATP at 1×Km (2 uM); 2 hours at 25° C.
Method: JAK3 Caliper Peptide Phosphorylation Assay
Phosphorylation of the appropriate peptide substrate (fluorescently labeled Srctide) by recombinant JAK3 (catalytic domain, aa 781-1124) was measured in the presence and absence of different concentrations of test compounds. Test compound, enzyme, fluorescently labeled substrate, and cofactors (ATP and Mg^2+) were combined in a well of a microtiter plate and incubated for 2 hours at 25° C. The composition of the reaction buffer was 100 mM HEPES pH 7.5, 5 mM MgCl2, 0.01% Triton-X 100, 0.1% Bovine Serum Albumin, and 1% DMSO. Enzyme concentration in the final reaction mixture was 0.5 nM while peptide substrate was at 1 uM. ATP was used at 1×Km concentration corresponding to 2 uM. Serial dilutions (3-fold steps) of compounds were prepared in DMSO. At the end of the incubation, the reaction was stopped by the addition of 20 mM EDTA. Substrate and product (i.e. phosphorylated substrate) were separated electrophoretically and both were quantified by fluorescence intensity using the microfluidics-based LabChip 3000 Drug Discovery System from Caliper Life Sciences. Conversion for each well was calculated and plotted as function of test compound concentration. IC50 value was determined by fitting the data to a 4-parameter logistic model by non-linear regression (XLfit model 205). In every assay, Staurosporine was tested in the same manner as reference compound. Selectivity for JAK3 was determined using commercially available kinase cross-screening services (DiscoveRx, San Diego, Calif.).

Chain of recombinant JAK3 (catalytic domain, aa 781-1124) (P52333 781-1124): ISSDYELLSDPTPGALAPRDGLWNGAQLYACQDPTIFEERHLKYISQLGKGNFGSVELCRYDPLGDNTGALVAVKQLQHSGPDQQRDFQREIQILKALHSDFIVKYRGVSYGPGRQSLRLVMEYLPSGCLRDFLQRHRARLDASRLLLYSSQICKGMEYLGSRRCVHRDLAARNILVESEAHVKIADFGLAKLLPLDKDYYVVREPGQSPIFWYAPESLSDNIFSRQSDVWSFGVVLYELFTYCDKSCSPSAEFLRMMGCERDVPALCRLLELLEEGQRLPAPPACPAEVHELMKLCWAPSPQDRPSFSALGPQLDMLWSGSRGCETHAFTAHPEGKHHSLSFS

Row | SMILES | IC50
1 | CCNC(=O)C(C#N)=Cc1ccc(Nc2cnc3[nH]cc(C(=O)C(C)(C)C)c3n2)cc1 [compound 77, 2-cyano-3-(4-((7-pivaloyl-5H-pyrrolo[2,3-b]pyrazin-2-yl)amino)phenyl)-N-ethylacrylamide] | 1 nM
2 | CC(C)NC(=O)c1c[nH]c2ncc(-c3cccc(C=C(C#N)C(=O)N(C)C)c3)nc12 [compound 47, 2-(3-(2-cyano-3-(dimethylamino)-3-oxoprop-1-en-1-yl)phenyl)-N-isopropyl-5H-pyrrolo[2,3-b]pyrazine-7-carboxamide] | 13 nM
3 | Cc1ccc(Nc2ncnc3[nH]ccc23)cc1C=C(C#N)C(=O)N(C)C [compound 19, 3-(5-((7H-pyrrolo[2,3-d]pyrimidin-4-yl)amino)-2-methylphenyl)-2-cyano-N,N-dimethylacrylamide] | > 5000 nM
4 | COc1c(C=C(C#N)C(=O)N(C)C)cccc1Nc1ncnc2[nH]ccc12 [compound 15, 3-(3-((7H-pyrrolo[2,3-d]pyrimidin-4-yl)amino)-2-methoxyphenyl)-2-cyano-N,N-dimethylacrylamide] | 2200 nM
5 | CN(C)C(=O)C(C#N)=Cc1ccc(Oc2ncnc3[nH]ccc23)cc1 [compound 12, 3-(4-((7H-pyrrolo[2,3-d]pyrimidin-4-yl)oxy)phenyl)-2-cyano-N,N-dimethylacrylamide] | 280 nM
6 | CN(C)C(=O)C(C#N)=Cc1ccc(Nc2cnc3[nH]cc(C(=O)C(C)(C)C)c3n2)cc1F [compound 66, 2-cyano-3-(2-fluoro-4-((7-pivaloyl-5H-pyrrolo[2,3-b]pyrazin-2-yl)amino)phenyl)-N,N-dimethylacrylamide] | 0.7 nM

Compounds with a lower IC50, results first:

Row | IC50 | SMILES
7 | 0.4 nM | CC(C)(C)C(=O)c1c[nH]c2ncc(Nc3ccc(C=C(C#N)C(N)=O)cc3)nc12 [compound 60, 2-cyano-3-(4-((7-pivaloyl-5H-pyrrolo[2,3-b]-pyrazin-2-yl)amino)phenyl)acrylamide]
8 | 0.4 nM | CC(C)(C)C(=O)c1c[nH]c2ncc(Nc3ccc(C=C(C#N)C(=O)N4CCC4)cc3)nc12 [compound 62, 2-(azetidine-1-carbonyl)-3-(4-((7-pivaloyl-5H-pyrrolo[2,3-b]pyrazin-2-yl)amino)phenyl)acrylonitrile]
9 | 0.2 nM | CC(C)NC(=O)c1c[nH]c2ncc(Nc3ccc(C=C(C#N)C(=O)N4CCNCC4)cc3)nc12 [compound 83, 2-((4-(2-cyano-3-oxo-3-(piperazin-1-yl)prop-1-en-1-yl)phenyl)amino)-N-isopropyl-5H-pyrrolo[2,3-b]pyrazine-7-carboxamide]
10 | 0.2 nM | CC(C)NC(=O)c1c[nH]c2ncc(Nc3ccc(C=C(C#N)C(=O)N(C)C)cc3)nc12 [compound 50, 2-((4-(2-cyano-3-(dimethylamino)-3-oxoprop-1-en-1-yl)phenyl)amino)-N-isopropyl-5H-pyrrolo[2,3-b]pyrazine-7-carboxamide]
